Test results published in patent US8350048B2, “Amide compounds as boosters of antivirals” (Janssen R&D Ireland, priority 2007, dated 2013).
Like-named read-outs stand apart in the source and are kept apart here.

Tests used:
[1] = Toxicity, mock-infected MT4 CMV-EGFP cells; assay type: cell-based, human; details: human
Excerpt: (§1) Assay 1 &2: Antiviral Activity/Toxicity
(§2) Analogously, MT4 cells are engineered with GFP and the constitutional cytomegalovirus (CMV) promotor. […] Cytotoxic investigational compounds reduce GFP levels of mock-infected MT4 CMV-EGFP cells.
(§3) The ratio of CC50 to EC50 is defined as the selectivity index (SI) and is an indication of the selectivity of the anti-HIV activity of the inhibitor. The ultimate monitoring of HIV-1 infection and cytotoxicity is done using a scanning microscope. Image analysis allows very sensitive detection of viral infection. Measurements are done before cell necrosis, which usually takes place about five days after infection, in particular measurements are performed three days after infection.
(§4) A pEC50 value corresponds to −log10(EC50). A pCC50 value corresponds to −log10(CC50).

[2] = system: wild-type HIV-1IIIB strain; assay: Antiviral activity, MT4 LTR-EGFP cellular assay; assay type: cell-based; design: key to Antiviral activity IIIB (pEC50): pEC50 = -log10(EC50); details: for EC50: read-out: Antiviral activity IIIB (pEC50) (converted)
Procedure: as §1
The compounds of the present invention were tested for antiviral activity in a cellular assay, which was performed according to the following procedure.
The human T-cell line MT4 is engineered with Green Fluorescent Protein (GFP) and an HIV-specific promoter, HIV-1 long terminal repeat (LTR). This cell line is designated MT4 LTR-EGFP, and can be used for the in vitro evaluation of anti-HIV activity of investigational compounds. In HIV-1 infected cells, the Tat protein is produced which upregulates the LTR promotor and finally leads to stimulation of the GFP reporter production, allowing measuring ongoing HIV-infection fluorometrically.
as §3, §4

[3] = Metabolic stability of test compounds (HLM15'); assay type: in vitro ADME, human; details: for recovery at 15 min, 5 μM: read-out: Metabolic stability (HLM, % recovery after 15')
Excerpt: Human liver tissue is rinsed in ice-cold 0.1 M Tris-HCl (pH 7.4) buffer to wash excess blood. Tissue is then blotted dry, weighed and chopped coarsely using surgical scissors. The tissue pieces are homogenized in 3 volumes of ice-cold 0.1 M phosphate buffer (pH 7.4) using either a Potter-S (Braun, Italy) equipped with a Teflon pestle or a Sorvall Omni-Mix homogenizer, for 7×10 sec. In both cases, the vessel is kept in/on ice during the homogenization process. Tissue homogenates are centrifuged at 9000×g for 20 min at 4° C. using a Sorvall centrifuge or Beckman Ultracentrifuge. The resulting supernatant can be stored at −80° C. and is designated ‘S9’. The S9 fraction is centrifuged at 100,000×g for 60 min at 4° C. using a Beckman ultracentrifuge. The resulting supernatant is carefully aspirated, aliquoted and designated ‘cytosol’. The pellet is re-suspended in 0.1 M phosphate buffer (pH 7.4) in a final volume of 1 ml per 0.5 g original tissue weight and designated ‘microsomes’. All sub-cellular fractions are aliquoted, immediately frozen in liquid nitrogen and stored at −80° C. until use.
Heat-inactivated (10 min at 95° C.) ‘S9’ or microsomes were used for blank experiments. […] The reaction was incubated for 0 or 15 min. Next, the reaction was stopped by addition of 2 volumes of DMSO (or acetonitrile). Samples were centrifuged (10 min, 900×g) and analyzed by LC-MS.

MT4 CMV-EGFP cells = assay: Toxicity, mock-infected MT4 CMV-EGFP cells; assay type: cell-based, human
Excerpt: as §1, §2, §3, §4

CYP2C9 = CYP2C9 (Homo sapiens, UniProt P11712); assay: in vitro
CYP2C9, sequence (P11712 whole entry): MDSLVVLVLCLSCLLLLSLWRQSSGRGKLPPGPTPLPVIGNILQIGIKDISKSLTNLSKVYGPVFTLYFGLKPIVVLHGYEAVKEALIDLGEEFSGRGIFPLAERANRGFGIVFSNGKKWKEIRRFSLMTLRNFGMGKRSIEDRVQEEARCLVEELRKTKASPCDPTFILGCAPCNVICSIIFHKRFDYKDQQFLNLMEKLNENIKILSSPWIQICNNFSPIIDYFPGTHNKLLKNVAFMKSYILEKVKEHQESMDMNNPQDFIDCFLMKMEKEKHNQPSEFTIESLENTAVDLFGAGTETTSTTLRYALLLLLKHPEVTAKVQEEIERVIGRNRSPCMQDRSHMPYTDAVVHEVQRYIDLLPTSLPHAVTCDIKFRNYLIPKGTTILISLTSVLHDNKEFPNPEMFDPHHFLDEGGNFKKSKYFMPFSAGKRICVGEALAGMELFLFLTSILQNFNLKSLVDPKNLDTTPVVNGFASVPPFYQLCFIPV
Excerpt: Assay 4: CYP450 Inhibition

CYP2C19 = CYP2C19 (Homo sapiens, UniProt P33261); assay: in vitro; details: E. coli expressed CYP2C19, pH 7.4, probe CEC 25 μM
CYP2C19, sequence (P33261 whole entry): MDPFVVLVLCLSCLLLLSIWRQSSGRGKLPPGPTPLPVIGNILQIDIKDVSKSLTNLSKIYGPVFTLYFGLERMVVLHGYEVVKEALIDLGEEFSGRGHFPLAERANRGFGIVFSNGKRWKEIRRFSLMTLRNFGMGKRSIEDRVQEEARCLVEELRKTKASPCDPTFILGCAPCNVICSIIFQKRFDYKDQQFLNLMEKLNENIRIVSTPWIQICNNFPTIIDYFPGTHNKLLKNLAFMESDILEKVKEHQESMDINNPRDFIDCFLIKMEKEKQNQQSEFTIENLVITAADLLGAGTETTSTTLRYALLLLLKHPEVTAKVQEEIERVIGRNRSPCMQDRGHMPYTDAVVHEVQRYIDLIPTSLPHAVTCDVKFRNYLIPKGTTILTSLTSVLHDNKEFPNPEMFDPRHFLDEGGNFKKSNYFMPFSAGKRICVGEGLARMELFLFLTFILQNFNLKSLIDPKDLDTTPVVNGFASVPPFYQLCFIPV
Procedure: (§5) Inhibition of the metabolism of test compounds by different CYP P450 isoenzymes was determined using E. coli expressed proteins (3A4, 2C9, 2D6, 1A2, and 2C19) that convert their specific substrates into a fluorescent molecule (Table 6). This fluorescent molecule was measured using a fluorescent plate reader (Victor2 (Wallac) or Fluoroskan (Labsystems)). […] CYP P450 enzymes were prepared in house or commercially bought and stored at −80° C.
(§6) The assay was performed in black 96 well Costar plates. Test compounds were added to a CYP P450 enzyme solution in the presence of an NADPH generating system. After 5 min of preincubation at 37° C., the freshly prepared, phosphate buffered (pH 7.4) substrate solution was added. Known CYP P450 inhibitors were used as positive controls, negative controls were run without CYP P450 enzyme. […] Reaction mixtures were incubated at 37° C. for 30 min (CYP3A4-BFC), 30 min (CYP3A4-BQ), 10 min (CYP3A4-DBF), 15 min (CYP1A2-CEC), 30 min (CYP2C9-MFC, CYP2C19-CEC), or 45 min (CYP2D6-AMMC), respectively. Then, the reaction was stopped by the addition of 200 μl acetonitrile, and the fluorescent signal was detected.
(§7) Calculation of CYP P450 isoenzyme inhibition (% inh.):
(§8) % activity=(100/(average positive control−average negative control))×(average sample−average negative control)

CYP2D6 = CYP2D6 (Homo sapiens, UniProt P10635); assay: in vitro; details: pH 7.4
CYP2D6, sequence (P10635 whole entry): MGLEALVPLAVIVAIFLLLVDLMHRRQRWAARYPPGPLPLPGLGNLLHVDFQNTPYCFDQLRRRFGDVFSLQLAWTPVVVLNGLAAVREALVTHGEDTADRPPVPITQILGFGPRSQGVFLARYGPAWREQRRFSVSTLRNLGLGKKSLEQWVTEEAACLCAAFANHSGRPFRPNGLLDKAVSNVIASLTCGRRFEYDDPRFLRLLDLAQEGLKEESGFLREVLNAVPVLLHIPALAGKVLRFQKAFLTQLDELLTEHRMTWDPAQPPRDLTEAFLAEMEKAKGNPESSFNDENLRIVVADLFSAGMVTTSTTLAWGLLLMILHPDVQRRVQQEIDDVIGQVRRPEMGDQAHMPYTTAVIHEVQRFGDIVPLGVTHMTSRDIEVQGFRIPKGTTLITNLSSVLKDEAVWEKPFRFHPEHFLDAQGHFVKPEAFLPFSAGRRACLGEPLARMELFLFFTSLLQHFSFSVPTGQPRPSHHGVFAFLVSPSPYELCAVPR
Procedure: as §5, §6, §7, §8

[4] = wild-type HIV-1 IIIB, MT4 LTR-EGFP cells, three days after infection
[5] = human liver microsomes 1 mg/ml, 5 μM test compound, 15 min
[6] = mock-infected MT4 CMV-EGFP cells, read-out: Toxicity MT4 (pCC50) (converted)
[7] = Human immunodeficiency virus 1, 72 h, wild-type HIV-1 IIIB, MT4 LTR-EGFP cells, three days after infection
[8] = pH 7.4, human liver microsomes 1 mg/ml, 5 μM test compound, 15 min

Structure (SMILES)	Toxicity MT4 (pCC50) (MT4 CMV-EGFP cells)	Antiviral activity IIIB (pEC50) [2, 4]	Metabolic stability (HLM, % recovery after 15') [3, 5] [%]	Cyp450 inhibition: CDNA-CYP2C9-MFC (% inhibition) (CYP2C9) [%]	further results
CCN(C[C@@H](O)[C@H](Cc1ccccc1)NC(=O)OCc1cncs1)C(=O)c1ccc2nc(N3CCCC3)oc2c1 [Compound C30, Thiazol-5-ylmethyl (2S,3R)-4-(N-ethyl-2-(pyrrolidin-1-yl)benzo[d]oxazole-6-carboxamido)-3-hydroxy-1-phenylbutan-2-ylcarbamate]					CC50 [1]: 72.4 µM; EC50 ([2]; Human immunodeficiency virus 1, IIIB, 72 h): 69.2 µM; recovery ([3]; human, pH 7.4): 80%
CCN(C)c1nc2ccc(C(=O)N(CC(C)C)C[C@@H](O)[C@H](Cc3ccccc3)NC(=O)OCc3ccc4c(c3)OCO4)cc2o1 [Compound C36]	=4.57	=4.79	62	84	
CC(C)CN(C[C@@H](O)[C@H](Cc1ccccc1)NC(=O)OCc1cncs1)C(=O)c1ccc2nc(NCCCN(C)C)oc2c1 [Compound C23]	<4.00	=4.22	59	28	
CC(C)CN(C[C@H](O)[C@H](Cc1ccccc1)NC(=O)OCc1cncs1)C(=O)c1ccc2nc(N3CCCC3)oc2c1 [Compound C51, Thiazol-5-ylmethyl (2S,3S)-3-hydroxy-4-(N-isobutyl-2-(pyrrolidin-1-yl)-benzo[d]oxazole-6-carboxamido)-1-phenylbutan-2-ylcarbamate]					inhibition at 30 min, 10 μM (CYP2C19): 94%; CC50 at 3 days [1, 6]: 40.7 µM; EC50 [2, 7]: 44.7 µM; inhibition at 45 min, 10 μM (CYP2D6): 82%; recovery at 15 min, 5 μM [3, 8]: 66%
CCN(C)c1nc2ccc(C(=O)N(CCN3CCOCC3)C[C@@H](O)[C@H](Cc3ccccc3)NC(=O)OCc3cncs3)cc2o1 [Compound C18]	<4.00	<4.00	64	53	
CC(C)CN(C[C@@H](O)[C@H](Cc1ccccc1)NC(=O)OCc1cncs1)C(=O)c1ccc2nc(NCCCn3ccnc3)oc2c1 [Compound C46]	<4.00	=4.06	92	90	
CCN(C)c1nc2ccc(C(=O)N(C[C@@H](O)[C@H](Cc3ccccc3)NC(=O)OCc3cncs3)CC(C)(C)C)cc2o1 [Compound C43]	=4.34	=4.32	67	97	
CCN(C)c1nc2ccc(C(=O)N(CC(C)C)C[C@@H](O)[C@H](Cc3ccccc3)NC(=O)OCc3cccnc3)cc2o1 [Compound C9]	=4.24	=4.32	65	91	
CCN(C)c1nc2ccc(C(=O)N(CC(C)C)C[C@@H](O)[C@H](Cc3ccccc3)NC(=O)OCc3cncs3)cc2o1 [Compound C1, Thiazol-5-ylmethyl (2S,3R)-4-(2-(ethyl(methyl)amino)-N-isobutylbenzo[d]-oxazole-6-carboxamido)-3-hydroxy-1-phenylbutan-2-ylcarbamate]					CC50 at 3 days [1]: > 81.3 µM; EC50 [2, 7]: 70.8 µM; recovery at 15 min, 5 μM [3, 8]: 71%
CC(C)CN(C[C@@H](O)[C@H](Cc1ccccc1)NC(=O)OCc1cncs1)C(=O)c1ccc2nc(N3CCOCC3)oc2c1 [Compound C5]	=4.06	<4.00	67	95	
CC(C)CN(C[C@@H](O)[C@H](Cc1cccnc1)NC(=O)OCc1cncs1)C(=O)c1ccc2ncsc2c1 [Compound C55, Thiazol-5-ylmethyl (2S,3R)-3-hydroxy-4-(N-isobutylbenzo[d]thiazole-6-carboxamido)-1-(pyridin-3-yl)butan-2-ylcarbamate]					CC50 at 3 days [1, 6]: > 100 µM; EC50 [2, 7]: > 100 µM
C#CCN(C)c1nc2ccc(C(=O)N(CC(C)C)C[C@@H](O)[C@H](Cc3ccccc3)NC(=O)OCc3cncs3)cc2o1 [Compound C50]		=4.32	72		Toxicity MT4 (pCC50) (MT4 CMV-EGFP cells; mock-infected MT4 CMV-EGFP cells): =4.32
CCN(C)c1nc2ccc(C(=O)N(CCN(C)C)C[C@@H](O)[C@H](Cc3ccccc3)NC(=O)OCc3cncs3)cc2o1 [Compound C11]	<4.00	<4.00	57	29	
CC(C)CN(C[C@@H](O)[C@H](Cc1ccccc1)NC(=O)OCc1cncs1)C(=O)c1ccc2ncn(C(C)C)c2c1 [Compound C14]	<4.00	<4.00	60	93	
CCN(C)c1nc2ccc(C(=O)N(CC(C)C)C[C@H](O)[C@H](Cc3ccccc3)NC(=O)OCc3cncs3)cc2o1 [Compound C52, Thiazol-5-ylmethyl (2S,3S)-4-(2-(ethyl(methyl)amino)-N-isobutylbenzo[d]-oxazole-6-carboxamido)-3-hydroxy-1-phenylbutan-2-ylcarbamate]					CC50 [1]: 44.7 µM; EC50 [2, 7]: 44.7 µM; recovery at 15 min, 5 μM [3, 8]: 63%
CC(C)CN(C[C@@H](O)[C@H](Cc1ccccc1)NC(=O)OCc1cncs1)C(=O)c1ccc2nc(N)oc2c1 [Compound C22]	<4.00				Antiviral activity IIIB (pEC50) [2]: <4.00; Metabolic stability (HLM, % recovery after 15') [3]: 72%
CCN(C)c1nc2ccc(C(=O)N(CC(C)C)C[C@@H](O)[C@H](Cc3cccnc3)NC(=O)OCc3cncs3)cc2o1 [Compound C54, Thiazol-5-ylmethyl (2S,3R)-4-(2-(ethyl(methyl)amino)-N-isobutylbenzo[d]-oxazole-6-carboxamido)-3-hydroxy-1-(pyridin-3-yl)butan-2-ylcarbamate]					CC50 at 3 days [1, 6]: > 100 µM; EC50 [2, 7]: > 100 µM
CCN(C)c1nc2ccc(C(=O)N(CCN3CCCC3)C[C@@H](O)[C@H](Cc3ccccc3)NC(=O)OCc3cncs3)cc2o1 [Compound C12]	<4.00	<4.00	69	34	
CC(C)CN(C[C@@H](O)[C@H](Cc1ccccc1)NC(=O)OCc1cncs1)C(=O)c1ccc2nc(N(C)CCN(C)C)oc2c1 [Compound C24]	<4.00				Antiviral activity IIIB (pEC50) [2]: =4.20; Metabolic stability (HLM, % recovery after 15') [3]: 57%
